Source: US20050107394A1, “Novel use of selective pde5 inhibitors” (priority 2001, published 2005)
Several values for one entry are separate records, joined by “and”; a condition that tells them apart may be missing. Equal entries are not always repeated. Entries after “also recorded” stand apart in the source; their conditions may differ.

Tests used:
[1] = system: bleomycin-induced pulmonary fibrosis in rabbits; assay: Shunting by MIGET in bleomycin-induced pulmonary fibrosis; format: in vivo, rabbit; conditions: for shunting (MIGET), level reached: PGI 6 ng/kg/min systemic, NO 20 ppm inhaled, sildenafil 1 mg/kg oral; for effect on shunting: NO inhaled, sildenafil oral
Experimental: FIG. 1: Result of determination of shunting with the aid of the model of bleomycin-induced pulmonary fibrosis in rabbits. The measurements by the inert gas exchange method (MIGET) [Wagner et al., J Appl Physiol. 1974;36:588-99] reveal that the shunting was increased by 15% in this model, compared with the untreated control. Systemically administered PGI [6 ng/kg body weight/min] (PGI, prostacyclin) increased the shunting to about 30%. […] Shunting was reduced to 6% by oral administration of the PDE5 inhibitor sidenafil [1 mg/kg body weight].
Healthy rabbits of both sexes were pretreated orally with a gyrase inhibitor (Baytril®) for one week. Ten animals pretreated in this way were not treated with bleomyin and served as control, and, on the day of exposure, the others were anaesthetized with a Ketanest®/Rompun® mixture, intubated intratracheally and ventilated mechanically. An ultrasonic nebulizer (MMAD 2.5 μm) was used to administer by inhalation exactly 1.8 U/kg of bodyweight of bleomycin under volume-controlled ventilation. After 4, 8, 16, 24, 32 and 64 days (in each case n≧5) post exposure, the animals were again anaesthetized, provided with an arterial access (right carotid artery) and underwent bodyweight-adapted ventilation via a tracheostomy in a volume-controlled method. The arterial pO2 and pCO2, and the static compliance of the lung were measured (by recording the intrathoracic pressure and with slow inflation/deflation manoeuvres). Subsequently, the lungs of these animals were dissected and perfused with a Krebs Hensefeit buffer. Under these conditions, the capillary filtraton coefficient (cfc) was then found from the weight gain of the organ after increasing the pulmonary venous pressure by 7.5 mmHg, and the peak ventilation pressure was found. After completion of these measurements, the left main bronchus was ligated in the end-inspiratory position and a bronchoalveolar lavage (BAL) was performed on the right lung. Subsequently, the large vessels and airways of the right lung were dissected off and the organ was homogenized. The left lung was perfusion-fixed with 4% formalin solution while maintaining a pressure gradient of 25 cm H2O and was then stored in 4% formalin until embedded. Firstly, the cells were removed from the BAL, counted and differentiated via a Papenheim stain. The cell-free BAL supernatant was then aliquoted and submitted to further analysis of the surfactant and coagulation properties and a determination of the matrix metallo proteinases (MMPs) and their inhibitors (TIMPs) and of soluble collagen. Bronchoalveolar deposition of 1.8 U/kg of bodyweight of bleomycin led initially to development of an ARDS-like event, with a massive restriction of gas exchange (paO2/FiO2 of >500 mmHg in the controls reduced to ˜110 mmHg on day 4), ground-glass opacities over all sections of the lung in the HRCT and an increase of about 5-fold in the capillary filtration coefficient (cfc). In the later phase of bleomycin-induced lung damage there was then development of pronounced fibrosis which could be confirmed on the basis of the increase in soluble collagen in the BAL and the hydroxyproline in the tissue, on the basis of the histological specimens and of the HRCT findings. […] Consistent with this, a pronounced increase in the extracellular matrix and an alveolar and also interstitial ingress of fibroblasts was observable in the histological sections. […]

[2] = system: patients with chronic thromboembolism and displaying secondary PHT; assay: Pulmonary vascular resistance (delta PVR, right cardiac catheterization) in patients with chronic thromboembolism; format: in vivo, human; conditions: for effect on pulmonary vascular resistance: 7 patients with CTEPH; for vascular resistance (PVR), reduction: 7 patients, PGI i.v. 6 ng/kg/min, NO 20 ppm inhaled, sildenafil 50 mg oral
Experimental: FIG. 4: Result of measurement of the arterial oxygen partial pressure (PaO2) on 7 patients with chronic thromboembolism and displaying secondary PHT (pulmonary hypertension). The arterial oxygen partial pressure was improved by NO (inhaled) [20 ppm] and sildenafil (oral) [50 mg] by respectively 1.8% and 7.6%, whereas the oxygen saturation fell by 13% after administration of PGI (intravenous). In the same experiment, the vascular resistance was measured and determined as delta PVR by a right cardiac catheterization. The vascular resistance was reduced respectively by 25%, 19% and 21% after administration of PGI (intravenous) [6 ng/kg bodyweight/min], NO (inhaled) [20 ppm] and sildenafil (oral) [50 mg].
(§1) 7 patients with CTEPH underwent a Swan-Ganz catheter investigation with measurement of the ventilation/perfusion (V/Q) distribution (using the multiple inert gas elimination technique (MIGET)). After determination of the baseline parameters (haemodynamics and gas exchange), all the patients initially inhaled 20 ppm NO, followed by a second baseline period (10-15 min), and then PGI was infused (6 ng/kg bodyweight/min), again followed by a second baseline period (10-15 min) and then an oral dose of 50 mg of sildenafil was given (120-150 min follow-up). 3 of the 7 patients were controlled by continuous nasal oxygen therapy in order to reach an arterial oxygenation of >88%. The following parameters were measured under baseline conditions: mean pulmonary arterial pressure (mPAP) 52.1 +/−3.3 mmHg, cardiac index (CI) 2.2+/−0.1 |* min^−1*m^−2, pulmonary vascular resistance index (PVRI) 1703.8+/−129.5 dyn*s*cm^−6*m^2, arterial pO2 72.5+/−3.3 mmHg and mixed venous oxygen saturation (SvO2) of 63.4+/−2.2%.

[3] = system: patients with ILD (interstitial lung disease) displaying secondary PHT; assay: Shunting by MIGET in patients with ILD; format: in vivo, human; conditions: 7 patients with ILD; for shunting / shunt perfusion (MIGET), level reached: baseline 7.2%, PGI i.v., NO 20 ppm inhaled, sildenafil 50 mg oral
Experimental: FIG. 5: Result of determination of the shunting on 7 patients with ILD (interstitial lung disease) displaying secondary PHT. The measurement took place by the inert gas exchange method (MIGET) [Wagner et al. J Appl Physiol. 1974;36:588-99]. The shunting was reduced to 5% and 4.8%, respectively, by NO (inhaled) [20 ppm] and sildenafil (oral) [50 mg]. The shunting was increased to 18% after administration of PGI (prostacyclin, intravenous) […]].
as §1, with “ILD” for “CTEPH”, “5” for “3”, “39.6+/−2.8 mmHg and” for “52.1 +/−3.3 mmHg, cardiac index (CI) 2.2+/−0.1 |* min^−1*m^−2,”, “1255+/−215 dyn*s*cm−5*m^2.” for “1703.8+/−129.5 dyn*s*cm^−6*m^2, arterial pO2 72.5+/−3.3 mmHg and mixed venous oxygen saturation (SvO2) of 63.4+/−2.2%.”

[4] = system: patients with ILD displaying secondary PHT; assay: Arterial oxygen partial pressure (delta PaO2) in patients with ILD; format: in vivo, human; conditions: 7 patients with ILD; for arterial oxygen partial pressure (delta PaO2) / O2 saturation, increase: NO 20 ppm inhaled, sildenafil 50 mg oral
Description: FIG. 6: Result of determination of the arterial oxygen partial pressure (PaO2) on 7 patients with ILD displaying secondary PHT (pulmonary hypertension) measured as delta PaO2.
as §1, with “ILD” for “CTEPH”, “5” for “3”, “39.6+/−2.8 mmHg and” for “52.1 +/−3.3 mmHg, cardiac index (CI) 2.2+/−0.1 |* min^−1*m^−2,”, “1255+/−215 dyn*s*cm−5*m^2.” for “1703.8+/−129.5 dyn*s*cm^−6*m^2, arterial pO2 72.5+/−3.3 mmHg and mixed venous oxygen saturation (SvO2) of 63.4+/−2.2%.”

SMILES: CCCCC[C@H](O)/C=C/[C@@H]1[C@H]2C/C(=C/CCCC(=O)O)O[C@H]2C[C@H]1O [PGI, prostacyclin]
- shunting (MIGET), level reached [1]: about 30%
- effect on pulmonary vascular resistance [2]: marked reduction
- vascular resistance (PVR), reduction [2]: 25%
- shunting / shunt perfusion (MIGET), level reached [3]: 18% and ~20%
- arterial oxygen partial pressure / oxygen saturation, decrease ([4]; PGI intravenous 6 ng/kg/min): 12.5% and 12%

SMILES: CCCc1nn(C)c2c(=O)[nH]c(-c3cc(S(=O)(=O)N4CCN(C)CC4)ccc3OCC)nc12 [sildenafil, 5-[2-ethoxy-5-(4-methyl-1-piperazinyl-sulphonyl)phenyl]-1-methyl-3-n-propyl-1,6-dihydro-7H-pyrazolo[4,3-d]pyrimidin-7-one]
- effect on shunting [1]: reduced the shunting even more than NO
- shunting (MIGET), level reached [1]: 6%
- effect on pulmonary vascular resistance [2]: marked reduction
- vascular resistance (PVR), reduction [2]: 21%
- effect on shunting / ventilation/perfusion distribution [3]: virtually unchanged; also recorded: no effect
- shunting / shunt perfusion (MIGET), level reached [3]: 4.8%
- arterial oxygen partial pressure (delta PaO2) / O2 saturation, increase [4]: 15% and 13%

SMILES: [N]=O [NO, nitric oxide]
- effect on shunting [1]: reduced the shunting
- shunting (MIGET), level reached [1]: 9%
- effect on pulmonary vascular resistance [2]: marked reduction
- vascular resistance (PVR), reduction [2]: 19%
- effect on shunting / ventilation/perfusion distribution [3]: virtually unchanged; also recorded: no effect
- shunting / shunt perfusion (MIGET), level reached [3]: 5%
- arterial oxygen partial pressure (delta PaO2) / O2 saturation, increase [4]: 5% and 4.8%
